Data published in patent US11931424B2, “Combination MCL-1 inhibitors with anti-body drug conjugates” (Gilead Sciences, Inc., priority 2021, dated 2024).

Tested on: panel of breast cancer cell lines
Assay: Compound A with targeted agents and chemotherapies, 72-hour in vitro proliferation assays
Format: cell-based
Conditions: 72-hour proliferation
[1] = AU565 cell line, compound A × partner
[2] = BT-20 cell line, compound A × partner
[3] = BT-474 cell line, compound A × partner
[4] = BT-549 cell line, compound A × partner
[5] = CAL-51 cell line, compound A × partner
[6] = CAL-85-1 cell line, compound A × partner
[7] = CAL-120 cell line, compound A × partner
[8] = CAL-148 cell line, compound A × partner
[9] = CAMA-1 cell line, compound A × partner
[10] = DU-4475 cell line, compound A × partner
[11] = EVSA-T cell line, compound A × partner
[12] = HCC1143 cell line, compound A × partner
[13] = MCF7 cells, Compound A × partner agent
[14] = MDA-MB-175-VII cells, Compound A × partner agent
[15] = MDA-MB-231 cells, Compound A × partner agent
[16] = MDA-MB-361 cells, Compound A × partner agent
[17] = MDA-MB-436 cells, Compound A × partner agent
[18] = MDA-MB-453 cells, Compound A × partner agent
[19] = MDA-MB-468 cells, Compound A × partner agent
[20] = SK-BR-3 cells, Compound A × partner agent
[21] = SUM159PT cells, combination of compound A with the named agent
[22] = T47D cells, combination of compound A with the named agent
[23] = ZR-75-1 cells, combination of compound A with the named agent
[24] = ZR-75-30 cells, combination of compound A with the named agent

In the case of CC(=O)O[C@@]12CO[C@@H]1C[C@H](O)[C@@]1(C)C(=O)[C@H](O)C3=C(C)[C@@H](OC(=O)[C@H](O)[C@@H](NC(=O)OC(C)(C)C)c4ccccc4)C[C@@](O)([C@@H](OC(=O)c4ccccc4)[C@H]21)C3(C)C [Docetaxel], the “Bliss Volume” value [1] is reported as 16.97, the HSA volume [1] is reported as 3.68 and the “Loewe Volume” value [1] is reported as 1.71. For the same compound, the “Synergy Score” value [1] was 7.58, the “Bliss Volume” value [2] was 27.23 and the HSA volume [2] was 21.05. For the same compound, the “Loewe Volume” value [2] was 19.90, the “Synergy Score” value [2] was 39.72 and the “Bliss Volume” value [3] was 16.39. For the same compound, the HSA volume [3] was 9.80, the “Loewe Volume” value [3] was 8.62 and the “Synergy Score” value [3] was 14.51. The “Bliss Volume” value [4] was 22.57, the HSA volume [4] was 22.13 and the “Loewe Volume” value [4] was 22.04. For the same compound, the “Synergy Score” value [4] was 39.66, the “Bliss Volume” value [5] was 2.26 and the HSA volume [5] was 3.35. For the same compound, the “Loewe Volume” value [5] was 3.12, the “Synergy Score” value [5] was 4.88 and the “Bliss Volume” value [6] was 13.68. The HSA volume [6] was 11.86, the “Loewe Volume” value [6] was 11.10 and the “Synergy Score” value [6] was 19.64. The “Bliss Volume” value [7] was 8.92, the HSA volume [7] was 7.98 and the “Loewe Volume” value [7] was 8.39. The “Synergy Score” value [7] was 11.63, the “Bliss Volume” value [8] was 15.94 and the HSA volume [8] was 13.90. The “Loewe Volume” value [8] was 12.92, the “Synergy Score” value [8] was 28.74 and the “Bliss Volume” value [9] was 29.57. For the same compound, the HSA volume [9] was 6.98, the “Loewe Volume” value [9] was 4.88 and the “Synergy Score” value [9] was 13.30. The “Bliss Volume” value [10] was 19.28, the HSA volume [10] was 13.68 and the “Loewe Volume” value [10] was 12.74. For the same compound, the “Synergy Score” value [10] was 20.30, the “Bliss Volume” value [11] was 32.24 and the HSA volume [11] was 12.42. For the same compound, the “Loewe Volume” value [11] was 12.22, the “Synergy Score” value [11] was 24.87 and the “Bliss Volume” value (HCC38, compound A × partner) was 23.64. The HSA volume (HCC38, compound A × partner) was 16.36, the “Loewe Volume” value (HCC38, compound A × partner) was 14.95 and the “Synergy Score” value (HCC38, compound A × partner) was 29.56. For the same compound, the “Bliss Volume” value (HCC70, compound A × partner) was 25.33, the HSA volume (HCC70, compound A × partner) was 22.90 and the “Loewe Volume” value (HCC70, compound A × partner) was 20.81. The “Synergy Score” value (HCC70, compound A × partner) was 39.82, the “Bliss Volume” value [12] was 11.00 and the HSA volume [12] was 9.41. For the same compound, the “Loewe Volume” value [12] was 8.32, the “Synergy Score” value [12] was 18.84 and the “Bliss Volume” value (HCC1569, compound A × partner) was 6.58. For the same compound, the HSA volume (HCC1569, compound A × partner) was 8.56, the “Loewe Volume” value (HCC1569, compound A × partner) was 9.52 and the “Synergy Score” value (HCC1569, compound A × partner) was 11.65. For the same compound, the “Bliss Volume” value (HCC1806, compound A × partner) was 17.46, the HSA volume (HCC1806, compound A × partner) was 12.45 and the “Loewe Volume” value (HCC1806, compound A × partner) was 12.66. The “Synergy Score” value (HCC1806, compound A × partner) was 25.50, the “Bliss Volume” value (HCC1937, compound A × partner) was 10.96 and the HSA volume (HCC1937, compound A × partner) was 11.56. The “Loewe Volume” value (HCC1937, compound A × partner) was 11.67, the “Synergy Score” value (HCC1937, compound A × partner) was 11.60 and the “Bliss Volume” value (HCC1954, compound A × partner) was 25.28. The HSA volume (HCC1954, compound A × partner) was 14.25, the “Loewe Volume” value (HCC1954, compound A × partner) was 12.73 and the “Synergy Score” value (HCC1954, compound A × partner) was 25.34. For the same compound, the “Bliss Volume” value (HCC2218, compound A × partner) was 11.69, the HSA volume (HCC2218, compound A × partner) was 6.53 and the “Loewe Volume” value (HCC2218, compound A × partner) was 5.20. The “Synergy Score” value (HCC2218, compound A × partner) was 10.71, the “Bliss Volume” value (HDQ-P1, compound A × partner) was 7.85 and the HSA volume (HDQ-P1, compound A × partner) was 8.96. For the same compound, the “Loewe Volume” value (HDQ-P1, compound A × partner) was 8.67, the “Synergy Score” value (HDQ-P1, compound A × partner) was 11.43 and the “Bliss Volume” value (HMC-1-8, compound A × partner) was 31.00. The HSA volume (HMC-1-8, compound A × partner) was 8.49, the “Loewe Volume” value (HMC-1-8, compound A × partner) was 7.43 and the “Synergy Score” value (HMC-1-8, compound A × partner) was 16.44. The “Bliss Volume” value (JIMT-1, compound A × partner) was 4.03, the HSA volume (JIMT-1, compound A × partner) was 4.64 and the “Loewe Volume” value (JIMT-1, compound A × partner) was 3.81. The “Synergy Score” value (JIMT-1, compound A × partner) was 6.23, the “Bliss Volume” value (KPL-1, compound A × partner) was 5.18 and the HSA volume (KPL-1, compound A × partner) was 8.06. The “Loewe Volume” value (KPL-1, compound A × partner) was 7.67, the “Synergy Score” value (KPL-1, compound A × partner) was 10.20 and the “Bliss Volume” value [13] was 14.35. The HSA volume [13] was 11.99, the “Loewe Volume” value [13] was 11.64 and the “Synergy Score” value [13] was 17.93. The “Bliss Volume” value [14] was 16.97, the HSA volume [14] was 10.22 and the “Loewe Volume” value [14] was 12.14. The “Synergy Score” value [14] was 15.31, the “Bliss Volume” value [15] was 5.15 and the HSA volume [15] was 7.49. For the same compound, the “Loewe Volume” value [15] was 6.89, the “Synergy Score” value [15] was 11.57 and the “Bliss Volume” value [16] was −0.86. The HSA volume [16] was −2.31, the “Loewe Volume” value [16] was −3.71 and the “Synergy Score” value [16] was 4.61. The “Bliss Volume” value [17] was 1.49, the HSA volume [17] was 1.67 and the “Loewe Volume” value [17] was 1.48. For the same compound, the “Bliss Volume” value [18] was 30.81, the HSA volume [18] was 22.87 and the “Loewe Volume” value [18] was 21.87. For the same compound, the “Synergy Score” value [18] was 44.90, the “Bliss Volume” value [19] was 28.07 and the HSA volume [19] was 11.28. For the same compound, the “Loewe Volume” value [19] was 10.11, the “Synergy Score” value [19] was 20.73 and the “Bliss Volume” value [20] was 14.70. For the same compound, the HSA volume [20] was 4.18, the “Loewe Volume” value [20] was 2.95 and the “Synergy Score” value [20] was 7.33. For the same compound, the “Bliss Volume” value [21] was 18.66, the HSA volume [21] was 18.88 and the “Loewe Volume” value [21] was 17.94. For the same compound, the “Synergy Score” value [21] was 33.03, the “Bliss Volume” value [22] was −1.55 and the HSA volume [22] was 2.30. For the same compound, the “Loewe Volume” value [22] was 1.76, the “Synergy Score” value [22] was 6.53 and the “Bliss Volume” value [23] was 16.15. The HSA volume [23] was 16.66, the “Loewe Volume” value [23] was 17.29 and the “Synergy Score” value [23] was 25.42. For the same compound, the “Bliss Volume” value [24] was 6.48, the HSA volume [24] was 3.70 and the “Loewe Volume” value [24] was 2.62. The “Synergy Score” value [24] was 8.08.
